Data reported in patent US20240423973A1, “COMPOUNDS, PHARMACEUTICAL COMPOSITIONS, AND METHODS FOR THE TREATMENT, PREVENTION, OR MANAGEMENT OF HYPERPROLIFERATIVE DISORDERS” (VINCERX PHARMA GMBH, priority 2021, published 2024).
Counter-ions that a name gives are not always drawn.

Key:
Assay in all cases: Cytotoxicity in vitro in the presence and absence of elastase (MTT assay)
SUM149 = assay type: cell-based; conditions: SUM149 cells, 72 h
Method: (§1) Cultivation of cells was performed according to standard procedures with the media recommended by the provider. The cells, in a total volume of 100 μL, were seeded in a 96-well plate with a white bottom (#3610). After a 24 h incubation period at 37° C. and 5% CO2, the medium was exchanged by adding 90 μL fresh medium. The treatment started by adding the test compound in 10 μL of culture medium to the cells in triplicates. Concentrations ranging from 10^−5 M to 10^−13 M were chosen. Two identically treated sets of samples were prepared. One set was treated with the test compound alone, whereas to the second set the compound and 10 nM elastase was added followed by a 72 h incubation period at 37° C. and 5% CO2. The proliferation was detected using the MTT assay (ATCC). At the end of the incubation period the MTT reagent was added to all samples for 4h. Lysis of the cells followed by addition of the detergent was done overnight. The formed dye was detected at 570 nm. The proliferation of untreated but otherwise identically handled cells was define as the […].

NCI H292 = assay type: cell-based, human; conditions: NCI H292 cells, 72 h
Method: as §1

HT29 = assay type: cell-based, human; conditions: HT29 cells, 72 h
Method: as §1

786-O = assay type: cell-based, human; conditions: 786-O cells, 72 h
Method: as §1

SMILES: CCCNC(=O)Nc1cccc(S(=O)(=O)Nc2cccc([C@@H](CC(=O)O)NC(=O)Nc3ccc(NC(=O)NCCCC[C@H](NC(=O)Nc4ccc(NC(=O)N[C@H](CC(=O)O)c5cccc(NS(=O)(=O)c6cccc(NC(=O)NCCC)c6)c5)cc4)C(=O)NCCOCCOCCOCCC(=O)N[C@@H](CC(=O)O)C(=O)N4CCC[C@H]4C(=O)N[C@H](C(=O)O[C@]4(CC)C(=O)OCc5c4cc4n(c5=O)Cc5c-4nc4ccccc4c5CC)C(C)C)cc3)c2)c1 [Compound A1, Trisodium (4S)-4,11-diethyl-3,14-dioxo-3,4,12,14-tetrahydro-1H-pyrano[3′,4′:6,7]indolizino [1,2-b]quinoline-4-yl 1-[(2S)-15-{[N^2,N^6-bis({4-[({(1R)-2-carboxylato-1-[3-({3-[(propylcarbamoyl)amino]benzene-1-sulfonyl}amino)phenyl]ethyl}carbamoyl)amino]phenyl}carbamoyl)-L-lysyl]amino}-2-(carboxylatomethyl)-4-oxo-7,10,13-trioxa-3-azapentadecanan-1-oyl]-L-prolyl-L-valinate]
- IC50 (SUM149; compound alone (no elastase)): 10 to 100 nM
- IC50 (SUM149; with 10 nM elastase): 0.01 to 0.1 nM
- IC50 (NCI H292; compound alone (no elastase)): 10 to 100 nM
- IC50 (NCI H292; with 10 nM elastase): 0.1 to 1 nM
- IC50 (HT29; compound alone (no elastase)): > 100 nM
- IC50 (HT29; with 10 nM elastase): 0.01 to 0.1 nM
- IC50 (786-O; compound alone (no elastase)): 10 to 100 nM
- IC50 (786-O; with 10 nM elastase): 0.1 to 1 nM

SMILES: CCCNC(=O)Cc1cccc(S(=O)(=O)Nc2cccc([C@@H](CC(=O)O)NC(=O)Nc3ccc(NC(=O)NCCOCCOCCOCCC(=O)N[C@@H](CCCCNC(=O)CCOCCOCCOCCNC(=O)Nc4ccc(NC(=O)N[C@H](CC(=O)O)c5cccc(CS(=O)(=O)c6cccc(NC(=O)NCCC)c6)c5)cc4)C(=O)NCCN(C)CCN(C)CCN(C)CC(=O)N[C@@H](CC(N)=O)C(=O)N4CCC[C@H]4C(=O)N[C@H](C(=O)O[C@]4(CC)C(=O)OCc5c4cc4n(c5=O)Cc5c-4nc4ccccc4c5CC)C(C)C)cc3)c2)c1 [Compound A5]
- IC50 (SUM149; compound alone (no elastase)): 1.1 to 10 nM
- IC50 (SUM149; with 10 nM elastase): < 0.01 nM
- IC50 (NCI H292; compound alone (no elastase)): 1.1 to 10 nM
- IC50 (NCI H292; with 10 nM elastase): < 0.01 nM
- IC50 (HT29; compound alone (no elastase)): 10 to 100 nM
- IC50 (HT29; with 10 nM elastase): 0.01 to 0.1 nM
- IC50 (786-O; compound alone (no elastase)): 10 to 100 nM
- IC50 (786-O; with 10 nM elastase): 0.01 to 0.1 nM

SMILES: CCCNC(=O)Cc1cccc(S(=O)(=O)Nc2cccc([C@H](CC(=O)O)NC(=O)Nc3ccc(NC(=O)NCCOCCOCCOCCC(=O)N[C@@H](CCCCNC(=O)CCOCCOCCOCCNC(=O)Nc4ccc(NC(=O)N[C@@H](CC(=O)O)c5cccc(NS(=O)(=O)c6cccc(NC(=O)NCCC)c6)c5)cc4)C(=O)NCCN(C)CCN(C)CCN(C)CC(=O)N[C@@H](CC(N)=O)C(=O)N4CCC[C@H]4C(=O)N[C@H](C(=O)O[C@]4(CC)C(=O)OCc5c4cc4n(c5=O)Cc5c-4nc4ccccc4c5CC)C(C)C)cc3)c2)c1 [Compound A6]
- IC50 (SUM149; compound alone (no elastase)): 1.1 to 10 nM
- IC50 (SUM149; with 10 nM elastase): 0.01 to 0.1 nM
- IC50 (NCI H292; compound alone (no elastase)): 1.1 to 10 nM
- IC50 (NCI H292; with 10 nM elastase): 0.1 to 1 nM
- IC50 (HT29; compound alone (no elastase)): 10 to 100 nM
- IC50 (HT29; with 10 nM elastase): 0.1 to 1 nM
- IC50 (786-O; compound alone (no elastase)): 10 to 100 nM
- IC50 (786-O; with 10 nM elastase): 0.1 to 1 nM

SMILES: CCCNC(=O)Nc1cccc(S(=O)(=O)Nc2cccc([C@@H](CC(=O)O)NC(=O)Nc3ccc(NC(=O)NCCCCN(C)CCN(C)CCN(C)CC(=O)N[C@@H](CCCCNC(=O)CN(C)CCN(C)CCN(C)CCNC(=O)Nc4ccc(NC(=O)N[C@H](CC(=O)O)c5cccc(NS(=O)(=O)c6cccc(NC(=O)NCCC)c6)c5)cc4)C(=O)NCCN(C)CCN(C)CCN(C)CC(=O)N[C@@H](CC(N)=O)C(=O)N4CCC[C@H]4C(=O)N[C@H](C(=O)O[C@]4(CC)C(=O)OCc5c4cc4n(c5=O)Cc5c-4nc4ccccc4c5CC)C(C)C)cc3)c2)c1 [Compound A7]
- IC50 (SUM149; compound alone (no elastase)): 1.1 to 10 nM
- IC50 (SUM149; with 10 nM elastase): 0.1 to 1 nM
- IC50 (NCI H292; compound alone (no elastase)): 1.1 to 10 nM
- IC50 (NCI H292; with 10 nM elastase): 0.1 to 1 nM
- IC50 (HT29; compound alone (no elastase)): 10 to 100 nM
- IC50 (HT29; with 10 nM elastase): 0.1 to 1 nM
- IC50 (786-O; compound alone (no elastase)): 10 to 100 nM
- IC50 (786-O; with 10 nM elastase): 0.1 to 1 nM

SMILES: CCCNC(=O)Nc1cccc(S(=O)(=O)Nc2cccc([C@H](CC(=O)O)NC(=O)Nc3ccc(NC(=O)NCCN(C)CCN(C)CCN(C)CC(=O)NCCCC[C@H](NC(=O)CN(C)CCN(C)CCN(C)CCNC(=O)Nc4ccc(NC(=O)N[C@@H](CC(=O)O)c5cccc(NS(=O)(=O)c6cccc(NC(=O)NCCC)c6)c5)cc4)C(=O)NCCN(C)CCN(C)CCN(C)CC(=O)N[C@@H](CC(N)=O)C(=O)N4CCC[C@H]4C(=O)N[C@H](C(=O)O[C@]4(CC)C(=O)OCc5c4cc4n(c5=O)Cc5c-4nc4ccccc4c5CC)C(C)C)cc3)c2)c1 [Compound A8]
- IC50 (SUM149; compound alone (no elastase)): 1.1 to 10 nM
- IC50 (SUM149; with 10 nM elastase): 0.1 to 1 nM
- IC50 (NCI H292; compound alone (no elastase)): 1.1 to 10 nM
- IC50 (NCI H292; with 10 nM elastase): 0.1 to 1 nM
- IC50 (HT29; compound alone (no elastase)): 10 to 100 nM
- IC50 (HT29; with 10 nM elastase): 0.1 to 1 nM
- IC50 (786-O; compound alone (no elastase)): 10 to 100 nM
- IC50 (786-O; with 10 nM elastase): 0.1 to 1 nM

SMILES: CCCNC(=O)Nc1cccc(S(=O)(=O)Nc2cccc([C@@H](CC(=O)O)NC(=O)Nc3ccc(NC(=O)NCCN(C)CCN(C)CCN(C)CC(=O)NCC(=O)N4CCC[C@H]4C(=O)N[C@H](C(=O)O[C@]4(CC)C(=O)OCc5c4cc4n(c5=O)Cc5c-4nc4ccccc4c5CC)C(C)C)cc3)c2)c1 [Compound B2, (4S)-4,11-diethyl-3,14-dioxo-3,4,12,14-tetrahydro-1H-pyrano[3′,4′:6,7]indolizino[1,2-b]quinolin-4-yl N-{2-[{2-[{2-[({4-[({(1R)-2-carboxy-1-[3-({3-[(propylcarbamoyl)amino]benzene-1-sulfonyl}amino)phenyl]ethyl}carbamoyl)amino]phenyl}carbamoyl)amino]ethyl}(methyl)amino]ethyl}(methyl)amino]ethyl}-N-methylglycylglycyl-L-prolyl-L-valinate]
- IC50 (SUM149; compound alone (no elastase)): 0.1 to 1 nM
- IC50 (SUM149; with 10 nM elastase): < 0.01 nM
- IC50 (NCI H292; compound alone (no elastase)): 1.1 to 10 nM
- IC50 (NCI H292; with 10 nM elastase): < 0.01 nM
- IC50 (HT29; compound alone (no elastase)): 10 to 100 nM
- IC50 (HT29; with 10 nM elastase): < 0.01 nM
- IC50 (786-O; compound alone (no elastase)): 1.1 to 10 nM
- IC50 (786-O; with 10 nM elastase): < 0.01 nM

SMILES: CCCNC(=O)Nc1cccc(S(=O)(=O)Nc2cccc([C@@H](CC(=O)O)NC(=O)Nc3ccc(NC(=O)NCCN(C)CCN(C)CCN(C)CC(=O)N[C@@H](CC(N)=O)C(=O)N4CCC[C@H]4C(=O)N[C@H](C(=O)O[C@]4(CC)C(=O)OCc5c4cc4n(c5=O)Cc5c-4nc4ccccc4c5CC)C(C)C)cc3)c2)c1 [Compound B4, (4S)-4,11-Diethyl-3,14-dioxo-3,4,12,14-tetrahydro-1H-pyrano[3′,4′:6,7]indolizino[1,2-b]quinolin-4-yl N-{2-[{2-[{2-[({4-[({(1R)-2-carboxy-1-[3-({3-[(propylcarbamoyl)amino]benzene-1-sulfonyl}amino)phenyl]ethyl}carbamoyl)amino]phenyl}carbamoyl)amino]ethyl} (methyl)amino]ethyl} I(methyl)amino]ethyl}-N-methylglycyl-L-asparaginyl-L-prolyl-L-valinate]
- IC50 (SUM149; compound alone (no elastase)): 1.1 to 10 nM
- IC50 (SUM149; with 10 nM elastase): < 0.01 nM
- IC50 (NCI H292; compound alone (no elastase)): 10 to 100 nM
- IC50 (NCI H292; with 10 nM elastase): 0.01 to 0.1 nM
- IC50 (HT29; compound alone (no elastase)): 10 to 100 nM
- IC50 (HT29; with 10 nM elastase): 0.01 to 0.1 nM
- IC50 (786-O; compound alone (no elastase)): 10 to 100 nM
- IC50 (786-O; with 10 nM elastase): 0.01 to 0.1 nM

SMILES: CCCNC(=O)Nc1cccc(S(=O)(=O)Nc2cccc([C@@H](CC(=O)O)NC(=O)Nc3ccc(NC(=O)NCCOCCOCCOCCC(=O)N[C@@H](CC(=O)OCC[N+](C)(C)C)C(=O)N4CCC[C@H]4C(=O)N[C@H](C(=O)O[C@]4(CC)C(=O)OCc5c4cc4n(c5=O)Cc5c-4nc4ccccc4c5CC)C(C)C)cc3)c2)c1 [Compound C1, trifluoroacetate]
- IC50 (SUM149; compound alone (no elastase)): 10 to 100 nM
- IC50 (SUM149; with 10 nM elastase): 0.01 to 0.1 nM
- IC50 (NCI H292; compound alone (no elastase)): 10 to 100 nM
- IC50 (NCI H292; with 10 nM elastase): 0.01 to 0.1 nM
- IC50 (HT29; compound alone (no elastase)): 10 to 100 nM
- IC50 (HT29; with 10 nM elastase): 0.01 to 0.1 nM
- IC50 (786-O; compound alone (no elastase)): 10 to 100 nM
- IC50 (786-O; with 10 nM elastase): 0.01 to 0.1 nM
